Patent US5703232A, “Process and solvate of 2-methyl-thieno-benzodiazepine” (Eli Lilly and Company, priority 1996, dated 1997)

Key:
[1] = detection of radiolabelled compound in saliva; assay type: in vivo
[2] = stability of the anhydrous crystalline forms; assay type: physicochemical; conditions: anhydrous crystalline form, suitability for commercial pharmaceutical formulations
[3] = test system: mice; assay: apomorphine-induced climbing behavior in mice; assay type: in vivo
Description: (§1) The Form I olanzapine prepared by the process of this invention has useful central nervous system activity. […] For example, the anhydrous Form I compound has been assessed in a number of standard behavior tests predictive of antipsychotic activity. The claimed compound antagonised apomorphine-induced climbing behavior and hypothermia in mice. See Moore, N. A. et al Psychopharmacology 94 (2), 263-266 (1988).

[4] = test system: mice; assay: apomorphine-induced hypothermia in mice; assay type: in vivo
Description: as §1

[5] = test system: rats; assay: conditioned avoidance response in rats; assay type: in vivo
[6] = test system: rats; assay: induction of catalepsy; assay type: in vivo; conditions: compared with doses required to block conditioned avoidance response
[7] = test system: 5-HT2B receptor; assay: 5-HT2B receptor activity

Row | Structure (SMILES) | detection in saliva [1] | stability of the polymorph [2] | antagonism of apomorphine-induced climbing behavior [3] | antagonism of apomorphine-induced hypothermia [4] | inhibition of conditioned avoidance response [5] | induction of catalepsy [6] | 5-HT2B receptor activity [7]
1 | Cc1cc2c(s1)Nc1ccccc1N=C2N1CCN(C)CC1 [2-methyl-4-(4-methyl-1-piperazinyl)-10H-thieno-[2,3-b][1,5]benzodiazepine] | can be detected in the saliva | – | – | – | – | – | –
2 | Cc1cc2c(s1)Nc1ccccc1N=C2N1CCN(C)CC1 [anhydrous Form I olanzapine, 2-methyl-4-(4-methyl-1-piperazinyl)-10H-thieno[2,3-b][1,5]benzodiazepine] | – | stable | antagonised | antagonised | inhibits | only at higher doses | 5-HT2B receptor activity
3 | Cc1cc2c(s1)Nc1ccccc1N=C2N1CCN(C)CC1 [anhydrous Form II olanzapine, 2-methyl-4-(4-methyl-1-piperazinyl)-10H-thieno[2,3-b][1,5]benzodiazepine] | – | metastable | – | – | – | – | –
